These results are taken from patent US9975860B2, “Anti-angiogenic compounds” (UNIVERSITY COLLEGE DUBLIN—NATIONAL UNIVERSITY OF IRELAND, …, priority 2014, dated 2018).

Entries after “also recorded” stand apart in the source; their conditions may differ.

One test concerns human HT29-Luc2 cells. The test is described as follows: Clonogenic assay of cell viability in HT29-Luc2. The class given is cell-based. As to conditions: 10 μM, 24-96 hours. The protocol:
HT29-Luc2 CRC cells were maintained using McCoy's 5A (Gibco 36600-088) medium supplemented with 10% FBS (Gibco 10270-106) at 37° C./5% CO2. Cells were washed in DPBS and trypsinised using 2 ml TrypLE™ Express (1×) (Invitrogen). Cells were centrifuged following detachment at 1200 rpm for 4 minutes. The cell pellet was resuspended in full media and a cell count was performed using a haemocytometer. 1.5×10^3 cells were seeded per well of a 6 well plate and left to adhere for 24 hours. Cells were then treated with 10 μM of compound 4 or 18 for 24 hours. The drugs were then removed and cells were allowed to grow in fresh media for 10 days in total, clones were then fixed using 4% paraformaldehyde and stained by incubating with 0.5% crystal violet solution (Pro-Lab diagnostics PL.7000) at RT for 2 hours. Clones counting was performed using the ColCount™ system (Oxford Optronix).

The subject of a further test is PAI-1. The test is described as follows: Multiplex ELISA of HMEC media: PAI-1. It counts as cell-based, human. To be noted: compound-treated HMECs, 16 hours. The protocol:
Dermal-derived Human Microvascular Endothelial Cells (HMEC) were maintained at 37° C./5% CO2 in MCDB-131 medium (Gibco/cat: 10372) supplemented with 10% FCS, L-Glutamine (Gibco/cat: 25030-032), 1 μl/ml Hydrocortisone (Sigma/cat: H0396), 10 ng/ml EGF (BD Biosciences 354001) and 1% Pen-Strep (Gibco/cat: 151040-148). The wells of a μ-slide angiogenesis plate (IBIDI Cat no: 81506) were coated with a layer of matrigel matrix (BD 356234) which was left to polymerize for 45 minutes at 37° C. HMECs were grown to 80% confluence, washed with DPBS (Invitrogen) and trypsinised using 2 ml TrypLE™ Express (1×) (Invitrogen). Cells were centrifuged following flask detachment at 1200 rpm for 4 minutes. The cell pellet was resuspended in 3 ml full media and a cell count was performed using a haemocytometer. 7.5×10^3 cells were pipetted into each matrigel coated well of the μ-slide angiogenesis plate and treated with either 0.1% DMSO or 1, 3.16 or 10 μM compound 4 or compound 18. The slide was kept at 37° C./5% CO2 during cell tube formation. After 16 hours, 50 μl of media was removed from each of the Ibidi wells and 25 μl of the media was run in each well of a Meso Scale Discovery (MD, USA) custom multiplex ELISA containing the following analytes: Ang-1, Ang-2, VEGF, bFGF, PAI-1, sICAM and sVCAM. The ELISA was run as per manufacturer's instructions.

The test system of test [1] is primary hyaloid vessels in zebrafish. Description: Quantification of primary hyaloid vasculature branch number in Tg(fli1:EGFP) zebrafish. The class given is in vivo. The protocol: All experiments were carried out under ethical approval granted by the UCD animal research ethics committee. Tg(fli1:EGFP) zebrafish were maintained according to standard procedures on a 14 hr light/10 hr dark cycle at 28° C. Embryos were obtained by natural spawning and developmental stages established by time and morphological criteria. At 48 hours post fertilisation (hpf), 5 embryos per well were placed in 400 μl of Embryo Medium/0.1% DMSO and incubated with compound (typically, 10 μM) at 28° C. on a 14 h light/10 h dark cycle. At 5 days post fertilisation (dpf), larvae were euthanised, and fixed in 4% PFA at 4° C. overnight before analysis.
Prior to analysis of the intraocular vasculature, the control and treated larvae were observed under an Olympus SZX16 stereo zoom microscope and screened for general malformations. Overall patterning of the vasculature (fin, gut and intersegmental vessels) was examined for abnormalities. Right lenses were dissected from the larvae and transferred to depression slides for observation under epi-fluorescence in the Olympus SZX16. Patterning of the hyaloid vessels on the treated larval lenses was compared to 0.1% DMSO controls and the archetypal pattern previously described (Alvarez et al., 2007; Alvarez et al., 2009). The number of primary vessels radiating from the back of the lens (3-4 main branches at 5 dpf in controls and previously described), was counted and the average number was graphed for each drug.
All experimental protocols were carried out as per example 1 and 2. Briefly, zebrafish larvae were treated with 10 μM of AT-051/41206012 (chemical name 2-[2-(2-methoxyphenyl)ethenyl]pyrazine) purchased from Specs (The Netherlands). At 6 or 48 hours post fertilisation (hpf), 5 embryos per well were placed in 400 μl of Embryo Medium/0.1% DMSO and incubated with 10 μM AT-051/41206012 at 28° C. on a 14 h light/10 h dark cycle. Larvae were treated from 6-48 hpf (intersegmental vessel study) or from 48 to 120 hpf (primary hyaloid vessel study). At the end of the study, larvae were euthanized and fixed in 4% PFA at 4° C. overnight before analysis.
The number of intersegmental vessels was counted and the average number was graphed for each drug. Right lenses were dissected from the larvae and transferred to depression slides for observation and the number of primary hyaloid vessels radiating from the back of the lens (3-4 main branches at 5 dpf in controls and previously described), was counted and the average number was graphed for each drug.

For another test, the system named is SMUG1. Description: qPCR DNA repair gene expression in OE33P: SMUG1. It counts as cell-based, human. To be noted: 10 μM, 24 hours. The protocol:
(§1) OE33P radiosensitive oesophageal adenocarcinoma cells and OE33R radioresistant oesophageal adenocarcinoma cells were used to test the effects of the compound 4 on DNA repair gene expression. Cells were maintained in RPMI media supplemented with 10% foetal calf serum, penicillin (100 U/ml) and streptomycin (100 μg/ml). A total of 300,000 cells, in 2 ml media, were seeded per well in 6 well plates and left to incubate for 24 hours. The media was replaced with solutions containing 10 μM of compound 4 or the equivalent volume of DMSO vehicle control. After 24 hours of treatment, RNA was extracted from the cells and converted to cDNA. qPCR was then conducted and expression of MMS19, SMUG1 PARP1 and MLH1 was quantified, […]

Test [2] relates to HT29-LUC radioresistant colorectal adenocarcinoma cells. Description: Seahorse ECAR (glycolysis) in HT29-LUC. To be noted: 10 μM, 24 hours. The class given is cell-based, human. The protocol: HT29-LUC radioresistant colorectal adenocarcinoma cells were used to test the effects of compound 4 on glycolysis. Cells were maintained in McCoy's 5A media supplemented with 10% foetal calf serum. A total of 20,000 cells, in 100 μl media, were seeded per well in 24 well plates and left to incubate for 24 hours, with an additional 150 μl media added after 5 hours. The media was replaced with solutions containing 10 μM of compound 4 or the equivalent volume of DMSO vehicle control. After 24 hours of treatment, media was replaced with modified DMEM supplemented with 0.5 mM glucose. Rates of glycolysis were determined using Seahorse Biosciences metabolism technology. The media was disposed and the cells washed with PBS. The cells were fixed with 1% glutaraldehyde for 15 minutes and then stained with crystal violet for 30 minutes. The plates were blotted and dried overnight. The cells were resuspended with 1% TritonX-100 and shaken for 15 minutes. The absorbance was read on a spectrophotometer at 595 nm Rates of glycolysis were then normalised to cell number.

A further test deals with MLH1. The test is described as follows: qPCR DNA repair gene expression in OE33P: MLH1. The class given is cell-based, human. To be noted: 10 μM, 24 hours, p<0.05. The protocol: as §1
[3] abbreviates: 10 μM, zebrafish larvae treated 48 hpf to 5 dpf, vs 0.1% DMSO control.
[4] abbreviates: concentrations below 10 μM (range 1, 2.5, 5, 7.5 and 10 μM tested), zebrafish larvae 48 hpf to 5 dpf.

For `Oc1ccccc1C#Cc1cnccn1` [Compound 18, 2-[2-(Pyrazin-2-yl)ethynyl]phenol], the “cell viability in a clonogenic assay” value with human HT29-Luc2 cells is given as “does not affect cell viability”. Also, the “expression of PAI-1” value with PAI-1 is “significantly reduce; also recorded: reduce expression of Ang-2 and PAI-1 in human endothelial microvascular cells in a statistically significant manner”. Also, the “inhibition of developmental angiogenesis of the hyaloid vasculature (number of primary hyaloid vessels)” value in test [1] (setting [3]) and in test [1] (setting [4]) was “inhibit developmental angiogenesis of the zebrafish hyaloid vasculature in a statistically significant manner” each time.
For the compound `Cl.Oc1ccccc1/C=C/c1cnccn1` [Compound 4, (E)-2-[2-(Pyrazin-2-yl)vinyl]phenol hydrochloride], in the test on SMUG1, the “expression of SMUG1 (qPCR)” value is reported as “not significantly different to control”. In addition, in the test with human HT29-Luc2 cells, the “cell viability in a clonogenic assay” value is given as “does not affect cell viability”. In addition, the “expression of PAI-1” value in the test on PAI-1 (hydrochloride) is “significantly reduce; also recorded: reduce expression of Ang-2 and PAI-1 in human endothelial microvascular cells in a statistically significant manner”. Also, in test [2], the “extracellular acidification rate (ECAR), a measure of glycolysis” value was “does not significantly reduce extraceullar acidification rate”. The “inhibition of developmental angiogenesis of the hyaloid vasculature (number of primary hyaloid vessels)” value in test [1] (setting [3]) and in test [1] (setting [4]) was “inhibit developmental angiogenesis of the zebrafish hyaloid vasculature in a statistically significant manner” each time. Besides, the “expression of MLH1 (qPCR)” value with MLH1 is “significantly reduces”.
